Among the test systems are SN12C renal; UACC-257 melanoma; SF-295 CNS; RXF 393 renal; COLO 205 colon; 786-0 renal; U251 CNS; DU-145 prostate; A498 renal; K-562 leukemia; SK-MEL-28 melanoma; HOP-62 NSCLC; A549 NSCLC; IGROV1 ovarian; HL-60(TB) leukemia; CCRF-CEM leukemia; BT-549 breast; HS 578T breast; OVCAR-4 ovarian.
Common to all, as to assay: growth of human tumour cells (NCI), 48 h

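Cells were grown in 96-well plates and exposed to each compound for 48 hours at five concentrations; endpoints were interpolated linearly between bracketing concentrations, or set to the highest concentration if not reached. TGI: concentration producing complete growth inhibition.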

Consider `O=c1[nH]c(=O)n(C2OC(CO)C(O)C2O)c2ccsc12` (centres undefined), for which the TGI in the assay with SN12C renal, in the assay with UACC-257 melanoma, in the assay with SF-295 CNS, with RXF 393 renal, in the assay with COLO 205 colon and with 786-0 renal was > 100 µM each time. The TGI with U251 CNS, in the assay with DU-145 prostate, in the assay on A498 renal, in the assay with K-562 leukemia, in the assay on SK-MEL-28 melanoma and in the assay on HOP-62 NSCLC was > 100 µM in each case. Also, the TGI with A549 NSCLC, with IGROV1 ovarian, with HL-60(TB) leukemia, in the assay on CCRF-CEM leukemia, in the assay on BT-549 breast and in the assay on HS 578T breast was > 100 µM in each case. In addition, the TGI with OVCAR-4 ovarian was > 100 µM.

Regarding `CCC1(CCSC(=N)N)C(=O)NC(=O)NC1=O`, the TGI in the assay with SN12C renal, in the assay with UACC-257 melanoma, in the assay on SF-295 CNS, in the assay with RXF 393 renal, in the assay with COLO 205 colon and in the assay on 786-0 renal was > 100 µM throughout. Moreover, the TGI in the assay with U251 CNS, with DU-145 prostate, in the assay on A498 renal, in the assay with K-562 leukemia, in the assay on SK-MEL-28 melanoma and in the assay on HOP-62 NSCLC was > 100 µM throughout. Further, the TGI with A549 NSCLC, with IGROV1 ovarian, in the assay on HL-60(TB) leukemia, in the assay on CCRF-CEM leukemia, with BT-549 breast and with HS 578T breast was > 100 µM each time. Besides, the TGI in the assay with OVCAR-4 ovarian was > 100 µM.

Regarding `CC(=O)Nc1sc([N+](=O)[O-])cc1S(=O)(=O)c1ccc(Cl)cc1`, the TGI with SN12C renal is > 100 µM; in the assay on UACC-257 melanoma, 16.8 µM; in the assay with SF-295 CNS, 8.07 µM; with RXF 393 renal it was 13.5 µM; with COLO 205 colon, 1.77 µM; in the assay on 786-0 renal, > 100 µM. Moreover, the TGI with U251 CNS was > 35.5 µM; in the assay with DU-145 prostate, > 40.8 µM; in the assay on A498 renal, > 27.9 µM; with K-562 leukemia, > 100 µM; in the assay on SK-MEL-28 melanoma, > 100 µM; in the assay on HOP-62 NSCLC, 3.99 µM. Besides, the TGI in the assay with A549 NSCLC is > 54.6 µM; in the assay on IGROV1 ovarian, > 100 µM; in the assay with HL-60(TB) leukemia, > 23.5 µM; in the assay with CCRF-CEM leukemia, > 100 µM; in the assay on BT-549 breast, > 24.8 µM; with HS 578T breast it was 17.2 µM. The TGI with OVCAR-4 ovarian is > 100 µM.

In the case of `O=[N+]([O-])c1ccc2c(c1)Nc1c3ccccc3nc3cccc-2c13`, the TGI is > 80 µM in the assay on SN12C renal; 47.9 µM in the assay with UACC-257 melanoma; 6.98 µM in the assay on SF-295 CNS; 32.9 µM in the assay with RXF 393 renal; 19.8 µM in the assay with COLO 205 colon; 7.36 µM in the assay on 786-0 renal. Also, the TGI in the assay on U251 CNS is 18.6 µM; with DU-145 prostate, 9.43 µM; with A498 renal, > 100 µM; with K-562 leukemia it was > 19.7 µM; with SK-MEL-28 melanoma, 24.8 µM; with HOP-62 NSCLC it was 7.7 µM. The TGI with A549 NSCLC is 15.9 µM; in the assay on IGROV1 ovarian it was 15.4 µM; with HL-60(TB) leukemia, > 23.1 µM; in the assay on CCRF-CEM leukemia, 6.19 µM; with BT-549 breast it was 29.8 µM; with HS 578T breast it was > 100 µM. The compound further displayed a TGI with OVCAR-4 ovarian of 11.4 µM.

For `Cc1nc2ccccc2c(=O)n1NC(=O)c1ccc([N+](=O)[O-])cc1`, the TGI with SN12C renal, in the assay on UACC-257 melanoma, in the assay on SF-295 CNS, in the assay on RXF 393 renal, in the assay with COLO 205 colon and with 786-0 renal was > 100 µM in each case. The TGI in the assay on U251 CNS, in the assay on DU-145 prostate, with A498 renal, with K-562 leukemia, with SK-MEL-28 melanoma and in the assay with HOP-62 NSCLC was > 100 µM in each case. The TGI in the assay on A549 NSCLC, with IGROV1 ovarian, with HL-60(TB) leukemia, in the assay with CCRF-CEM leukemia, in the assay on BT-549 breast and in the assay with HS 578T breast was > 100 µM throughout. The TGI in the assay on OVCAR-4 ovarian is > 100 µM.

As to `N/C(=N\N=C\c1c[nH]c2cc(C(F)(F)F)ccc2c1=O)NO`, the TGI in the assay on SN12C renal, in the assay with UACC-257 melanoma, with SF-295 CNS, in the assay on RXF 393 renal, in the assay with COLO 205 colon and in the assay with 786-0 renal was > 10 µM each time. Moreover, the TGI in the assay on U251 CNS, with DU-145 prostate, in the assay with A498 renal, with K-562 leukemia, in the assay on SK-MEL-28 melanoma and in the assay with HOP-62 NSCLC was > 10 µM each time. Further, the TGI in the assay on A549 NSCLC, in the assay with IGROV1 ovarian, in the assay on HL-60(TB) leukemia, in the assay with CCRF-CEM leukemia, in the assay on BT-549 breast and with HS 578T breast was > 10 µM throughout. For the same compound, the TGI in the assay on OVCAR-4 ovarian is > 10 µM.

On to `O=C(O)c1cc2cc(c1)N=Cc1ccccc1OCc1cccc(n1)COc1ccccc1C=N2`, for which the TGI in the assay on SN12C renal was > 25 µM; in the assay on UACC-257 melanoma, > 25 µM; in the assay on SF-295 CNS, 22.1 µM; in the assay with RXF 393 renal, > 25 µM; with COLO 205 colon, > 25 µM; in the assay with 786-0 renal, > 25 µM. Also, the TGI in the assay on U251 CNS, with DU-145 prostate, in the assay with A498 renal, in the assay with K-562 leukemia, with SK-MEL-28 melanoma and with HOP-62 NSCLC was > 25 µM each time. The TGI was > 25 µM in the assay with A549 NSCLC; > 25 µM with IGROV1 ovarian; > 25 µM with HL-60(TB) leukemia; > 25 µM in the assay on CCRF-CEM leukemia; > 25 µM in the assay on BT-549 breast; 13.1 µM in the assay with HS 578T breast. Further, in the assay with OVCAR-4 ovarian, the TGI is > 25 µM.

Consider `Cc1ccc2nc(-c3ccc(-n4c(C)nc(=O)c(-c5ccc(F)cc5)c4C)cc3)sc2c1`, for which the TGI was 33.8 µM with SN12C renal; 30.1 µM with UACC-257 melanoma; 33.1 µM in the assay on SF-295 CNS; 23.2 µM in the assay on RXF 393 renal; 20.5 µM with COLO 205 colon; 29.9 µM in the assay on 786-0 renal. The TGI with U251 CNS was found to be 30.7 µM; in the assay with DU-145 prostate it was 30 µM; with A498 renal, 32.9 µM; in the assay on K-562 leukemia, 45.4 µM; in the assay with SK-MEL-28 melanoma, 50.7 µM; in the assay with HOP-62 NSCLC, 45.5 µM. The TGI turned out to be 35.6 µM in the assay with A549 NSCLC; 31.4 µM in the assay with IGROV1 ovarian; 34.2 µM in the assay with HL-60(TB) leukemia; 32.7 µM in the assay with CCRF-CEM leukemia; 29.9 µM with BT-549 breast; 96.9 µM in the assay with HS 578T breast. In the assay with OVCAR-4 ovarian, this compound registered a TGI of 56.6 µM.

Turning to `Cn1cc(-c2cnc(-c3cn(C)c4ccccc34)cn2)c2ccccc21`, the TGI in the assay with SN12C renal was > 100 µM; in the assay with UACC-257 melanoma it was > 100 µM; in the assay with SF-295 CNS, 11.7 µM; with RXF 393 renal, 24.7 µM; in the assay with COLO 205 colon, 15.6 µM; in the assay with 786-0 renal, 29.9 µM. The TGI with U251 CNS was 40.2 µM; with DU-145 prostate, > 58.5 µM; in the assay on A498 renal it was > 41.4 µM; in the assay on K-562 leukemia, > 52.5 µM; in the assay with SK-MEL-28 melanoma it was > 79.2 µM; in the assay with HOP-62 NSCLC, > 100 µM. The TGI in the assay with A549 NSCLC is > 100 µM; in the assay on IGROV1 ovarian it was > 50.5 µM; in the assay with HL-60(TB) leukemia, 8.66 µM; in the assay with CCRF-CEM leukemia, 3.58 µM; in the assay on BT-549 breast, > 84.7 µM; with HS 578T breast, 33.5 µM. For the same compound, the TGI in the assay with OVCAR-4 ovarian was > 100 µM.

As for `CCOC(=O)[C@H](O)[C@@H](O)C(=O)NCc1ccc(C(=O)c2ccccc2)cc1`, the TGI in the assay on SN12C renal, in the assay on UACC-257 melanoma, with SF-295 CNS, in the assay on RXF 393 renal, with COLO 205 colon and in the assay with 786-0 renal was > 100 µM throughout. Moreover, the TGI with U251 CNS, with DU-145 prostate, with A498 renal, in the assay on K-562 leukemia, with SK-MEL-28 melanoma and in the assay with HOP-62 NSCLC was > 100 µM in each case. Also, the TGI with A549 NSCLC, in the assay with IGROV1 ovarian, in the assay with HL-60(TB) leukemia, with CCRF-CEM leukemia, in the assay with BT-549 breast and with HS 578T breast was > 100 µM in each case. For the same compound, in the assay on OVCAR-4 ovarian, the TGI was > 100 µM.

On to `CO/N=C(/C(=O)N(C(=O)/C(=N/OC)c1csc(NC(c2ccccc2)(c2ccccc2)c2ccccc2)n1)n1cnn(CC(=O)OC(C)(C)C)c1=O)c1csc(NC(c2ccccc2)(c2ccccc2)c2ccccc2)n1`, for which the TGI with SN12C renal, with UACC-257 melanoma, in the assay on SF-295 CNS, in the assay on RXF 393 renal, with COLO 205 colon and with 786-0 renal was > 10 µM each time. Moreover, the TGI in the assay with U251 CNS, with DU-145 prostate, in the assay with A498 renal, with K-562 leukemia, with SK-MEL-28 melanoma and in the assay with HOP-62 NSCLC was > 10 µM in each case. Further, the TGI is > 10 µM with A549 NSCLC; > 10 µM with IGROV1 ovarian; > 10 µM in the assay on HL-60(TB) leukemia; > 10 µM in the assay with CCRF-CEM leukemia; 3.96 µM with BT-549 breast; > 10 µM in the assay on HS 578T breast. Also, the TGI in the assay on OVCAR-4 ovarian was > 10 µM.

The record behind these values is PubChem BioAssay (NCI).
